Laboratory results reported in patent publication US20130324597A1, “PHARMACEUTICAL COMPOSITION COMPRISING TRANS-[…] AND ITS USE IN THE TREATMENT OF INFECTIONS” (priority 2010, published 2013).

Experiments:
VIH = test: Activity on VIH (survival of lymphoid cells T4, P24 dosage); format: cell-based; parameters: unit of the concentration uncertain
E. coli [1] = test: Treatment of infected mice; format: in vivo; conditions: E. coli challenge, 7 days observation; reference antibiotic, dose not given
Experimental: (§1) The test is performed on Balb/c mice aged 10 to 12 weeks.
(§2) They are infected by intraperitoneal injection of 4.10^7 Staphylococcus aureus, methicilline resistant, in a growing phase or with E. coli.

[2] = system: Staphylococcus And Enterococcus; test: MIC of pure components in Mueller Hinton gelose; format: cell-based; conditions: Staphylococcus And Enterococcus n = 14
Source text: (§3) Following a method allowing the dissolution of the active blend in a Mueller Hinton gelose the MIC has been measured with pure components of the active blends 1 to 9.

Other Gram - rods = test: MIC of pure components in Mueller Hinton gelose; format: cell-based; conditions: Other Gram - rods n = 15
Source text: as §3

Enterobacteriaceae = test: MIC of pure components in Mueller Hinton gelose; format: cell-based; conditions: Enterobacteriaceae n = 13
Source text: as §3

E. coli [3] = test: MIC in Mueller Hinton gelose; format: cell-based, Escherichia coli
Source text: (§4) Following a method allowing the dissolution of the active blend in a Mueller Hinton gelose the following MIC has been measured with pure trans-cinnamaldehyde (CNM) and with the active blends 1 to 8 disclosed in table 1.
as §3

Enterococcus = test: MIC in Mueller Hinton gelose; format: cell-based, Enterococcus sp
Source text: as §4, §3

MRSA = conditions: bibliographic data on the main compound; cited from earlier work
all the strains = test: MIC of pure components, all strains of Table 9; format: cell-based; conditions: strains of Table 9, tested concentrations
Source text: as §3

P. aeruginosa = test: MIC in Mueller Hinton gelose; format: cell-based, Pseudomonas aeruginosa
Source text: as §4, §3

All strains (60 strains) = test: Killing-curves, log reduction time; format: cell-based; conditions: at MIC × 4
Source text: (§5) Results are expressed in minutes necessary to reduce bacterial counts by 1 log.

Cocci G+ = test: Killing-curves, log reduction time; format: cell-based; conditions: at MIC × 4
Source text: as §5

Enterobacteria = test: Killing-curves, log reduction time; format: cell-based; conditions: at MIC × 4
Source text: as §5

Other gram− = test: Killing-curves, log reduction time; format: cell-based; conditions: at MIC × 4
Source text: as §5

A baumanii = test: MIC in Mueller Hinton gelose; format: cell-based, Acinetobacter baumanii; conditions: A baumanii 09010
Source text: as §4, §3

E. faecium = test: MIC in Mueller Hinton gelose; format: cell-based, Enterococcus faecium
Source text: as §4, §3

Staphylococcus = test: MIC in Mueller Hinton gelose; format: cell-based
Source text: as §4, §3

E. aerogenes = test: MIC in Mueller Hinton gelose; format: cell-based; conditions: Enterobacter aerogenes 09004
Source text: as §4, §3

Pseudomonas = test: MIC in Mueller Hinton gelose; format: cell-based
Source text: as §4, §3

[4] = system: Staphylococcus aureus, methicilline resistant; test: Treatment of infected mice; format: in vivo, Balb/c mice; conditions: MRSA challenge, 10 days observation; reference antibiotic, dose not given
Experimental: as §1, §2

[5] = concentration 0.0005 (unit uncertain)
[6] = concentration 0.005 (unit uncertain)
[7] = concentration 0.05 (unit uncertain)
[8] = concentration 0.1 (unit uncertain)
[9] = concentration 0.5 (unit uncertain)
[10] = concentration 5 (unit uncertain)

SMILES: Cc1cn([C@H]2C[C@H](N=[N+]=[N-])[C@@H](CO)O2)c(=O)[nH]c1=O [AZT]
- % Survival (lymphoid cells T4) (VIH; [5]): 10.0%
- Dosage P24 (% inhibition vs T+ of the plate) (VIH; [5]): 39%
- % Survival (lymphoid cells T4) (VIH; [6]): 7.0%
- Dosage P24 (% inhibition vs T+ of the plate) (VIH; [6]): 48%
- % Survival (lymphoid cells T4) (VIH; [7]): 36.0%
- Dosage P24 (% inhibition vs T+ of the plate) (VIH; [7]): 80%
- % Survival (lymphoid cells T4) (VIH; [8]): 86.0%
- Dosage P24 (% inhibition vs T+ of the plate) (VIH; [8]): 99%
- % Survival (lymphoid cells T4) (VIH; [9]): 97.8%
- Dosage P24 (% inhibition vs T+ of the plate) (VIH; [9]): 100%
- % Survival (lymphoid cells T4) (VIH; [10]): 108.7%
- Dosage P24 (% inhibition vs T+ of the plate) (VIH; [10]): 100%

SMILES: CC1(C)S[C@@H]2[C@H](NC(=O)[C@H](N)c3ccc(O)cc3)C(=O)N2[C@H]1C(=O)O [Amoxicillin]
- % survival (E. coli [1]): 100%
- Final score (E. coli [1]): 6
- Final score, % vs placebo (E. coli [1]): 10.70%
- Total health score (E. coli [1]): 678
- Total health score, % vs placebo (E. coli [1]): 38.93%
- Total weight (E. coli [1]): 849
- Total weight, % vs placebo (E. coli [1]): 23.58%

SMILES: O=C(OCc1ccccc1)c1ccccc1 [Benzyl benzoate, benzyl benzoate]
- MIC Range [2]: > 10000 µg/mL
- MIC Range (Other Gram - rods): > 10000 µg/mL
- MIC Range (Enterobacteriaceae): > 10000 µg/mL

SMILES: O=C/C=C/c1ccccc1 [CNM, trans-cinnamaldehyde]
- MIC (E. coli [3]; E. coli 8137): 0.016%
- MIC (E. coli [3]; E. coli 8138): 0.016%
- MIC (E. coli [3]; E. coli 8141): 0.016%
- MIC (E. coli [3]; E. coli 8142): 0.016%
- MIC (E. coli [3]; E. coli 8150): 0.031%
- MIC (E. coli [3]; E. coli 8151): 0.031%
- MIC (E. coli [3]; E. coli 8154): 0.031%
- MIC (E. coli [3]; E. coli 8155): 0.031%
- MIC (E. coli [3]; E. coli 8156): 0.031%
- MIC (E. coli [3]; E. coli 8157): 0.031%
- MIC (E. coli [3]; E. coli 09003): 0.063%
- MIC (E. coli [3]; E. coli ATCC 25922): 0.015%
- MIC (Enterococcus; Enterococcus 8152): 0.031%
- MIC (Enterococcus; Enterococcus 8153): 0.031%
- elimination, bibliographic data (MRSA): 1.7 h
- activity / spectrum in words (all the strains): highly effective on all the strains
- MIC (P. aeruginosa; PS aeruginosa 09007): 0.063%
- MIC (P. aeruginosa; PS aeruginosa ATCC): 0.031%
- MIC (P. aeruginosa; Ps aeruginosa 09008): 0.016%
- Mean Log reduction time (All strains (60 strains)): 111 min
- Mean Log reduction time (Cocci G+): 195 min
- Mean Log reduction time (Enterobacteria): 72 min
- Mean Log reduction time (Other gram−): 95 min
- MIC (A baumanii): 0.016%
- MIC (E. faecium; Enterococcus faecium 09001): 0.031%
- MIC (E. faecium; Enterococcus faecium 09002): 0.031%
- MIC 50 [2]: 150 µg/mL
- MIC 90 [2]: 300 µg/mL
- MIC 50 (Other Gram - rods): 600 µg/mL
- MIC 90 (Other Gram - rods): 1250 µg/mL
- MIC 50 (Enterobacteriaceae): 150 µg/mL
- MIC 90 (Enterobacteriaceae): 600 µg/mL
- MIC (Staphylococcus; Staphylococcus 8143): 0.031%
- MIC (Staphylococcus; Staphylococcus 8146): 0.031%
- MIC (Staphylococcus; Staphylococcus 8147): 0.031%
- MIC (Staphylococcus; Staphylococcus 8148): 0.031%
- MIC (Staphylococcus; Staphylococcus 8149): 0.016%
- MIC (Staphylococcus; Staphylococcus 8237): 0.008%
- MIC (Staphylococcus; Staphylococcus 8238): 0.031%
- MIC (Staphylococcus; Staphylococcus 8239): 0.031%
- MIC (Staphylococcus; Staphylococcus 8240): 0.031%
- MIC (Staphylococcus; Staphylococcus 8241): 0.031%
- MIC (E. aerogenes): 0.063%
- MIC (Pseudomonas; Pseudomonas 8127): 0.063%
- MIC (Pseudomonas; Pseudomonas 8128): 0.063%
- MIC (Pseudomonas; Pseudomonas 8129*): 0.063%
- MIC (Pseudomonas; Pseudomonas 8130*): 0.125%
- MIC (Pseudomonas; Pseudomonas 8131*): 0.125%
- MIC (Pseudomonas; Pseudomonas 8132*): 0.125%
- MIC (Pseudomonas; Pseudomonas 8133): 0.125%
- MIC (Pseudomonas; Pseudomonas 8134): 0.016%
- MIC (Pseudomonas; Pseudomonas 8135*): 0.03%
- MIC (Pseudomonas; Pseudomonas 8136*): 0.016%

SMILES: C=C1CC/C=C(\C)CC[C@@H]2[C@@H]1CC2(C)C [Caryophyllene, beta-caryophyllene]
- activity / spectrum in words (all the strains): narrow
- MIC 50 [2]: > 10000 µg/mL
- MIC 90 [2]: > 10000 µg/mL
- MIC 50 (Other Gram - rods): > 10000 µg/mL
- MIC 90 (Other Gram - rods): > 10000 µg/mL
- MIC Range (Other Gram - rods): > 10000 µg/mL
- MIC 50 (Enterobacteriaceae): > 10000 µg/mL
- MIC 90 (Enterobacteriaceae): > 10000 µg/mL
- MIC Range (Enterobacteriaceae): > 10000 µg/mL

SMILES: CC12CCC(CC1)C(C)(C)O2 [Cineole, cineole]
- MIC Range [2]: > 10000 µg/mL
- MIC Range (Other Gram - rods): > 10000 µg/mL
- MIC Range (Enterobacteriaceae): > 10000 µg/mL

SMILES: CC(=O)OCC=Cc1ccccc1 [Cinnamyl acetate, cinnamyl acetate]
- activity / spectrum in words (all the strains): intermediate
- MIC 50 [2]: > 10000 µg/mL
- MIC 90 [2]: > 10000 µg/mL
- MIC 50 (Other Gram - rods): > 10000 µg/mL
- MIC 90 (Other Gram - rods): > 10000 µg/mL
- MIC 50 (Enterobacteriaceae): > 10000 µg/mL
- MIC 90 (Enterobacteriaceae): > 10000 µg/mL
- MIC Range (Enterobacteriaceae): > 10000 µg/mL

SMILES: C=CC(C)(O)CCC=C(C)C (centres unmarked) [Linalool, linalool]
- activity / spectrum in words (all the strains): wide
- MIC 50 [2]: 2500 µg/mL
- MIC 90 [2]: 10000 µg/mL
- MIC 50 (Other Gram - rods): > 10000 µg/mL
- MIC 90 (Other Gram - rods): > 10000 µg/mL
- MIC 50 (Enterobacteriaceae): 2500 µg/mL
- MIC 90 (Enterobacteriaceae): 10000 µg/mL

SMILES: COc1ccccc1/C=C/C=O [Trans-methoxycinnamaldehyde, trans-2-methoxycinnamaldehyde]
- MIC Range [2]: > 10000 µg/mL
- MIC Range (Other Gram - rods): > 10000 µg/mL
- MIC Range (Enterobacteriaceae): > 10000 µg/mL

SMILES: CN[C@H](CC(C)C)C(=O)N[C@H]1C(=O)N[C@@H](CC(N)=O)C(=O)N[C@H]2C(=O)N[C@H]3C(=O)N[C@H](C(=O)N[C@H](C(=O)O)c4cc(O)cc(O)c4-c4cc3ccc4O)[C@H](O)c3ccc(c(Cl)c3)Oc3cc2cc(c3O[C@@H]2O[C@H](CO)[C@@H](O)[C@H](O)[C@H]2O[C@H]2C[C@](C)(N)[C@H](O)[C@H](C)O2)Oc2ccc(cc2Cl)[C@H]1O [Vancomicin]
- % survival [4]: 100%
- Final score [4]: 10
- Final score, % vs placebo [4]: 42.86%
- Total weight [4]: 1110
- Total weight, % vs placebo [4]: 0.63%
